Assay results: ChEMBL document CHEMBL1129401, “Molecular electronic properties of a series of 4-quinolinecarbinolamines define antimalarial activity profile” (1996)

Each compound was assayed on Plasmodium berghei (assay: In vivo antimalarial activity against Plasmodium berghei infected mice (Mus musculus) at 640 mg/kg subcutaneous single dose). Details: not given.
Format: functional
`Cc1cc(C)c2nc(Oc3ccc(Cl)cc3)cc(C(O)C3CCCCN3)c2c1` (stereo unspecified) showed a MfI of 0.03. For `Cc1cccc2c(C(O)C3CCCCN3)cc(-c3ccc(Cl)cc3)nc12` (stereo unspecified), the MfI was 0.07. `OC(c1cc(-c2ccc(Cl)cc2)nc2c(C(F)(F)F)cccc12)C1CCCCN1` (stereo unspecified) gave a MfI of 0.31. In the case of `OC(c1cc(-c2ccc(Cl)cc2)nc2c(Cl)cc(Cl)cc12)C1CCCCN1` (stereo unspecified), the MfI is reported as 1.29. In the case of `OC(c1cc(-c2ccccc2)nc2c(C(F)(F)F)cccc12)C1CCCCN1` (stereo unspecified), the MfI is reported as 0.11. `COc1cc(C(F)(F)F)c2nc(C(F)(F)F)cc(C(O)C3CCCCN3)c2c1` (stereo unspecified) was tested, and the MfI was 0.81. `OC(c1cc(Oc2ccc(Cl)cc2)nc2c(Cl)cc(Cl)cc12)C1CCCCN1` (stereo unspecified) gave a MfI of 0.8. `Cc1cc(C)c2nc(-c3ccc(F)cc3)cc(C(O)C3CCCCN3)c2c1` (stereo unspecified) gave a MfI of 0.03. Compound `Cc1cccc2c(C(O)C3CCCCN3)cc(-c3ccc(F)cc3)nc12` (stereo unspecified) has a MfI of 0.05. `Cc1cc(C)c2nc(Nc3ccc(Cl)cc3)cc(C(O)C3CCCCN3)c2c1` (stereo unspecified) showed a MfI of 0.03. Compound `OC(c1cc(C(F)(F)F)nc2c1ccc1ccccc12)C1CCCCN1` (stereo unspecified) has a MfI of 0.13. `OC(c1cc(-c2ccccc2)nc2c1ccc1ccccc12)C1CCCCN1` (stereo unspecified) showed a MfI of 0.1. `OC(c1cc(Oc2ccc(Cl)c(Cl)c2)nc2c(Cl)cc(Cl)cc12)C1CCCCN1` (stereo unspecified) gave a MfI of 0.87. `Cc1ccc(-c2cc(C(O)C3CCCCN3)c3cc(C)cc(C)c3n2)cc1` (stereo unspecified) showed a MfI of 0.1. `OC(c1cc(-c2ccccc2)nc2c(Cl)cc(Cl)cc12)C1CCCCN1` (stereo unspecified) gave a MfI of 0.04. `OC(c1cc(C(F)(F)F)nc2c(Cl)cc(Cl)cc12)C1CCCCN1` (stereo unspecified) gave a MfI of 0.17. `Cc1cc(C)c2nc(-c3ccc(Cl)cc3)cc(C(O)C3CCCCN3)c2c1` (stereo unspecified) showed a MfI of 0.03. For `OC(c1cc(C(F)(F)F)nc2c(Cl)cccc12)C1CCCCN1` (stereo unspecified), the MfI was 0.03. `Cc1ccc(-c2cc(C(O)C3CCCCN3)c3cccc(C(F)(F)F)c3n2)cc1` (stereo unspecified) showed a MfI of 0.09. `OC(c1cc(-c2ccccc2)nc2c(Cl)cccc12)C1CCCCN1` (stereo unspecified) showed a MfI of 0.05. With `OC(c1cc(C(F)(F)F)nc2c1cc(Cl)c1ccccc12)C1CCCCN1` (stereo unspecified) the MfI was 0.12. Compound `OC(c1cc(-c2cccc(C(F)(F)F)c2)nc2c(C(F)(F)F)cccc12)C1CCCCN1` (stereo unspecified) has a MfI of 1.2. For `COc1ccc(-c2cc(C(O)C3CCCCN3)c3cc(C)cc(C)c3n2)cc1` (stereo unspecified), the MfI was 0.03. Compound `COc1ccc(-c2cc(C(O)C3CCCCN3)c3cccc(C(F)(F)F)c3n2)cc1` (stereo unspecified) has a MfI of 0.07.

Same assay, conditions: 640 mg/kg
`OC(c1cc(C(F)(F)F)nc2c(C(F)(F)F)cccc12)C1CCCCN1` (stereo in doubt; 1a) [MEFLOQUINE] was tested, and the MfI was 1. With `OC(c1cc(C(F)(F)F)nc2c(C(F)(F)F)cccc12)C1CCCCN1` (stereo in doubt; 1d) [MEFLOQUINE] the MfI was 0.81.

These compounds were tested on Plasmodium berghei (assay: In vivo antimalarial activity against Plasmodium berghei infected mice (Mus musculus) at 640 mg/kg subcutaneous single dose; NC=non-curative). Details: not given.
Format: functional, organism-based
Design: dose 640 mg/kg
With `OC(c1cc(-c2ccc(Cl)cc2)nc2c1ccc1ccccc12)C1CCCCN1` (stereo unspecified) the MfI was “Noncurative dose”. In the case of `Cc1cc(C)c2nc3c(c(C(O)C4CCCCN4)c2c1)CCC3` (stereo unspecified), the MfI is reported as “Noncurative dose”. `NC(=O)c1cc(C(O)C2CCCCN2)c2cccc(C(F)(F)F)c2n1` (stereo unspecified) was tested, and the MfI was “Noncurative dose”. For `OC(c1cc(C(F)(F)F)nc2c(F)cccc12)C1CCCCN1` (stereo unspecified), the MfI was “Noncurative dose”. `Cc1cc(C)c2nc(C(F)(F)F)cc(C(O)C3CCCCN3)c2c1` (stereo unspecified) was tested, and the MfI was “Noncurative dose”. `OC(c1ccnc2c(Cl)cccc12)C1CCCCN1` (stereo unspecified) was tested, and the MfI was “Noncurative dose”. In the case of `Cc1cc(C(O)C2CCCCN2)c2cc(Cl)cc(Cl)c2n1` (stereo unspecified), the MfI is reported as “Noncurative dose”. In the case of `OC(c1ccnc2c(C(F)(F)F)cccc12)C1CCCCN1` (stereo unspecified), the MfI is reported as “Noncurative dose”. For `Cc1cccc2c(C(O)C3CCCCN3)cc(C(F)(F)F)nc12` (stereo unspecified), the MfI was “Noncurative dose”. With `Cc1cccc2c(C(O)C3CCCCN3)cc(-c3ccccc3)nc12` (stereo unspecified) the MfI was “Noncurative dose”. For `OC(c1cc(-c2ccc(Cl)cc2)nc2c(Cl)cccc12)C1CCCCN1` (stereo unspecified), the MfI was “Noncurative dose”. In the case of `O=C(Nc1cccc(C(F)(F)F)c1)c1cc(C(O)C2CCCCN2)c2cccc(C(F)(F)F)c2n1` (stereo unspecified), the MfI is reported as “Noncurative dose”. For `Cc1cc(C)c2nc(CC/C=C/c3ccc(Cl)cc3)cc(C(O)C3CCCCN3)c2c1` (stereo unspecified), the MfI was “Noncurative dose”. For `OC(c1ccnc2c(Cl)cc(Cl)cc12)C1CCCCN1` (stereo unspecified), the MfI was “Noncurative dose”. For `Cc1ccc(-c2cc(C(O)C3CCCCN3)c3cccc(C)c3n2)cc1` (stereo unspecified), the MfI was “Noncurative dose”.
